US7572885B2, “Isolated GAGE-7B and 8 proteins” (Ludwig Institute For Cancer Research, priority 1998, dated 2009)

Experiments:
[1] = tested on: GAGE genes expression in PHA stimulated PBLs; experiment: Induction of GAGE gene expression by demethylation in PHA stimulated PBLs; type: cell-based; conditions: 1 uM, 72 hours in culture medium
Description: (§1) These experiments were designed to determine expression of GAGE genes in various cell and tumor types. For each type of cell assayed, total RNA was extracted, using standard guanidium-isothiocyanate procedures, as taught by e.g., Davis, et al. in Basic Methods In Molecular Biology, Elsevier Science Publishing Co., New York (1986), pp. 130-135. Reverse transcription was carried out on 2 ug samples of the total RNA, using 2 mM of Oligo(dT)15 primer, in a reaction volume of 20 ul. Portions of the resulting cDNA ( 1/20 of the product), were used in the PCR amplification. In order to amplify GAGE-1, 2, and 8, the primers used were:
(§2) For GAGE-3, 4, 5, 6; & 7B, the primers were: • 5′- GACCAAGGCG CTATGTAC-3′ • (sense, SEQ ID NO: 6) and SEQ ID NO: 5 For all amplifications, the denaturation step was 94° C. for 5 minutes, then 30 cycles of amplification (1 minute at 94° C., 2 minutes at 58° C., 2 minutes at 72° C.), then a final extension step of 72° C. for 15 minutes. The products were analyzed by agarose gel electrophoresis, with RNA integrity being checked by reverse transcription and amplification of β-actin mRNA.
(§3) In order to determine if expression of GAGE genes could be induced by demethylation, samples of cultured tumor and normal cells were incubated for 72 hours in culture medium containing 1 uM 5-aza-2′-deoxycytidine. SEQ ID NOS: 4 and 5, supra, were used in the amplification protocol.

[2] = tested on: GAGE 1, 2, and 8 expression in sarcoma and melanoma cell lines; experiment: Induction of GAGE gene expression by demethylation, RT-PCR with SEQ ID NOS: 4 and 5; type: cell-based; conditions: 1 uM, 72 hours in culture medium
Description: as §1, §2, §3

## Nc1ncn([C@H]2C[C@H](O)[C@@H](CO)O2)c(=O)n1 [5-aza-2′-deoxycytidine]
[1]
  expression of all GAGE genes following treatment: expressed
[2]
  expression of GAGE 1, 2, and 8 after demethylating treatment: induced
